In PubChem BioAssay AID200 (DTP/NCI, 2004):
Values joined by “and” are separate entries in the source; they are usually repeats but may differ in a detail not shown here. Equal entries are not always repeated. Toxic doses and inconclusive results are not listed. The calls were made as follows: active = survival T/C of 150% or more; inactive = T/C below 125% in these data. Where a SMILES comes first, the peptide text is derived from it. [ ]: non-standard residue; d: D form. The star is where a group is joined. Cbz = O=C(OCc1ccccc1)*; Nva = CCC[CH](N)C(=O)O

Tested on: B6C3F1 mice, B16 melanoma ip, median survival T/C
Assay: NCI In Vivo Anticancer Drug Screen. Data for tumor model B16 Melanoma (intraperitoneal) in B6C3F1 mice
Settings: endpoint: median survival time, schedule: Q01DX009 (ip), higher = longer survival
Procedure, shortened: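 Transplantable tumor in mice; treated vs vehicle control groups; survival or tumor size measured; value = T/C ratio.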

[1] = dose: 25.0 mg/kg/injection, vehicle: Klucel (hydroxypropylcellulose) (HPC)
[2] = dose: 50.0 mg/kg/injection, vehicle: Klucel (hydroxypropylcellulose) (HPC)
[3] = dose: 100.0 mg/kg/injection, vehicle: Klucel (hydroxypropylcellulose) (HPC)
[4] = dose: 200.0 mg/kg/injection, vehicle: Klucel (hydroxypropylcellulose) (HPC)
[5] = dose: 400.0 mg/kg/injection, vehicle: Klucel (hydroxypropylcellulose) (HPC)
[6] = dose: 3.12 mg/kg/injection, vehicle: saline with Tween-80
[7] = dose: 6.25 mg/kg/injection, vehicle: saline with Tween-80
[8] = dose: 12.5 mg/kg/injection, vehicle: saline with Tween-80
[9] = dose: 25.0 mg/kg/injection, vehicle: saline with Tween-80
[10] = dose: 12.5 mg/kg/injection, vehicle: Klucel (hydroxypropylcellulose) (HPC)
[11] = dose: 50.0 mg/kg/injection, vehicle: saline with Tween-80
[12] = dose: 100.0 mg/kg/injection, vehicle: saline with Tween-80
[13] = dose: 12.5 mg/kg/injection, vehicle: saline
[14] = dose: 25.0 mg/kg/injection, vehicle: saline
[15] = dose: 50.0 mg/kg/injection, vehicle: saline
[16] = dose: 100.0 mg/kg/injection, vehicle: saline
[17] = dose: 200.0 mg/kg/injection, vehicle: saline

Measured: T/C

O=C(NC(Cc1ccc(I)cc1)C(=O)O)c1cccc(Br)c1 (stereo not drawn)
inactive: [1] 100 % of control | [2] 104 % of control | [3] 105 % of control | [4] 103 % of control | [5] 89 % of control

CC(C)N1C(=O)C=C(c2ccc([N+](=O)[O-])cc2)C1=O
inactive: [6] 104 % of control | [7] 111 % of control | [8] 105 % of control | [9] 105 % of control

CCCC(NC(=O)OCc1ccccc1)C(=O)NC(CC(C)C)C(N)=O (stereo not drawn) (Cbz-[Nva]-Leu-NH2; configuration not given here)
inactive: [3] 98 % of control | [4] 94 % of control | [5] 97 % of control

CCCCCC(=O)O[C@]1(C(C)=O)CC[C@H]2[C@@H]3CCC4=CC(=O)CC[C@]4(C)[C@H]3CC[C@@]21C
inactive: [10] 97 % of control and 101 % of control | [1] 100 % of control and 104 % of control | [2] 96 % of control and 98 % of control | [3] 99 % of control and 100 % of control | [4] 97 % of control and 100 % of control | [5] 91 % of control and 97 % of control

O=S(=O)(CCl)OCCCl
inactive: [7] 97 % of control and 100 % of control | [8] 108 % of control and 113 % of control and 103 % of control | [9] 114 % of control and 115 % of control and 102 % of control | [11] 109 % of control and 100 % of control | [12] 110 % of control

N[C@@H](Cc1ccc(O)c(O)c1)C(=O)O
inactive: dose: 50.0 mg/kg/injection, vehicle: suspension in saline 94 % of control | dose: 100.0 mg/kg/injection, vehicle: suspension in saline 110 % of control | dose: 200.0 mg/kg/injection, vehicle: suspension in saline 100 % of control | dose: 400.0 mg/kg/injection, vehicle: suspension in saline 101 % of control and 104 % of control | dose: 800.0 mg/kg/injection, vehicle: suspension in saline 93 % of control and 105 % of control | dose: 1200.0 mg/kg/injection, vehicle: suspension in saline 97 % of control | dose: 1600.0 mg/kg/injection, vehicle: suspension in saline 100 % of control

CCC1OC(OC)C=CC1=O (stereo not drawn)
inactive: [13] 106 % of control | [14] 108 % of control | [15] 104 % of control

Cc1ccc(S(=O)(=O)OCCN(CCOS(=O)(=O)c2ccc(C)cc2)c2ccc(F)cc2)cc1
inactive: dose: 3.12 mg/kg/injection, vehicle: saline + alcohol 109 % of control | dose: 6.25 mg/kg/injection, vehicle: saline + alcohol 109 % of control | dose: 12.5 mg/kg/injection, vehicle: saline + alcohol 108 % of control | dose: 25.0 mg/kg/injection, vehicle: saline + alcohol 111 % of control | dose: 50.0 mg/kg/injection, vehicle: saline + alcohol 108 % of control

CC(=O)Oc1ccc2c3c1O[C@H]1[C@@H](OC(C)=O)C=C[C@H]4[C@@H](C2)N(C)CC[C@@]341
inactive: dose: 0.5 mg/kg/injection, vehicle: saline 101 % of control | dose: 1.0 mg/kg/injection, vehicle: saline 93 % of control | dose: 2.0 mg/kg/injection, vehicle: saline 90 % of control | dose: 4.0 mg/kg/injection, vehicle: saline 100 % of control | dose: 8.0 mg/kg/injection, vehicle: saline 98 % of control | dose: 16.0 mg/kg/injection, vehicle: saline 86 % of control | dose: 32.0 mg/kg/injection, vehicle: saline 93 % of control | dose: 64.0 mg/kg/injection, vehicle: saline 102 % of control | dose: 128.0 mg/kg/injection, vehicle: saline 110 % of control

CSCCC(N)C(=O)O (stereo not drawn)
inactive: [14] 106 % of control | [15] 94 % of control | [16] 100 % of control | [17] 113 % of control | dose: 400.0 mg/kg/injection, vehicle: saline 99 % of control

CCCCC/C(C=C(C#N)C#N)=C/c1ccccc1
inactive: [9] 111 % of control | [11] 106 % of control | [12] 123 % of control

O=C(Nc1ccc(C2=NCCCN2)cc1)c1ccc(C(=O)Nc2ccc(C3=NCCCN3)cc2)nc1
inactive: dose: 0.31 mg/kg/injection, vehicle: saline with Tween-80 100 % of control | dose: 0.62 mg/kg/injection, vehicle: saline with Tween-80 106 % of control | dose: 1.25 mg/kg/injection, vehicle: saline with Tween-80 105 % of control | dose: 2.5 mg/kg/injection, vehicle: saline with Tween-80 100 % of control | dose: 5.0 mg/kg/injection, vehicle: saline with Tween-80 100 % of control

c1cc[c]([Sn]([NH]c2ncnc3[nH]cnc23)([NH]c2ncnc3[nH]cnc23)[c]2ccccc2)cc1
inactive: [13] 105 % of control | [14] 100 % of control | [15] 100 % of control | [16] 106 % of control | [17] 116 % of control

S=c1[nH]cc2cnccn12
inactive: [8] 94 % of control and 95 % of control | [9] 93 % of control and 98 % of control | [11] 93 % of control and 96 % of control | [12] 97 % of control and 100 % of control | dose: 200.0 mg/kg/injection, vehicle: saline with Tween-80 91 % of control and 92 % of control | dose: 400.0 mg/kg/injection, vehicle: saline with Tween-80 97 % of control

O=C(Nc1cccc2c(OC(=O)C(Cl)Cl)c(N=Nc3ccc(S(=O)(=O)Nc4nccs4)cc3)cc(N=Nc3ccc(S(=O)(=O)Nc4nccs4)cc3)c12)C(Cl)Cl (tested in a mixture with another compound)
inactive: [6] 104 % of control | dose: 3.13 mg/kg/injection, vehicle: saline with Tween-80 94 % of control | [7] 115 % of control and 119 % of control and 87 % of control | [8] 114 % of control and 100 % of control and 104 % of control | [9] 109 % of control | [11] 108 % of control | [12] 95 % of control

Cc1c2ccccc2c(C)c2c1ccc1ccccc12
inactive: dose: 1.0 mg/kg/injection, vehicle: saline with Tween-80 99 % of control | dose: 2.0 mg/kg/injection, vehicle: saline with Tween-80 106 % of control | dose: 4.0 mg/kg/injection, vehicle: saline with Tween-80 122 % of control | dose: 8.0 mg/kg/injection, vehicle: saline with Tween-80 113 % of control | dose: 16.0 mg/kg/injection, vehicle: saline with Tween-80 86 % of control

COc1cc(C(=O)c2cc3c(cc2C)OCO3)cc(OC)c1OC
inactive: dose: 6.25 mg/kg/injection, vehicle: Klucel (hydroxypropylcellulose) (HPC) 94 % of control | [10] 100 % of control | [1] 108 % of control | [2] 117 % of control and 106 % of control

COC1C(/C=C/C(C)=O)OC2OC(C)(C)OC21 (stereo not drawn)
inactive: dose: 6.25 mg/kg/injection, vehicle: saline 92 % of control and 94 % of control and 100 % of control | [13] 93 % of control and 97 % of control and 98 % of control | [14] 91 % of control and 96 % of control and 101 % of control | [15] 108 % of control and 87 % of control and 101 % of control | [16] 93 % of control and 103 % of control and 104 % of control | [17] 112 % of control
